{"source": "patent US4081531A", "about": "“Antibiotic mimosamycin” (priority 1975, dated 1978)", "test_system": "Mycobacterium tuberculosis SMR", "experiment": "Antimicrobial activity (MIC) against tubercle bacilli", "type": "cell-based", "conditions": "672 h"}
{"compound": "COC1=C(C)C(=O)c2cc(=O)n(C)cc2C1=O", "note": "[mimosamycin]", "values": [{"measurement": "MIC", "value": 1.56, "unit": "µg/mL"}]}
